Assays:
[1] = tested on: murine peritoneal macrophages; assay: Macrophage cytotoxicity (resazurin); type: cell-based; conditions: BALB/c, mouse, 48 h, pH 7.2
Protocol: Peritoneal macrophages from albino laboratory-bred strain (BALB/c) mice were obtained in RPMI 1640 medium at pH 7.2 (Gibco, New York, NY, USA) supplemented with 10% (v/v) heat-inactivated fetal bovine serum, 100 U/mL penicillin and 0.1 mg/mL of streptomycin and distributed (1 × 10^6 macrophages/well) in triplicate in 96-well plates (Falcon Co., Franklin Lakes, USA) and incubated for 1 h in a 5% CO2 atmosphere incubator at 310K. The supernatant was removed, and the compounds were added to the plate at concentrations from 10 µM to 50 µM. Next, the cultures were incubated for 48 h in a CO2 incubator at 310K. After incubation, the supernatant was removed and a resazurin solution (50 µM) was added to each well and incubated at 310K for 4 h. Furthermore, the fluorescence was measured using a wavelength of 560 nm for excitation and 590 nm for detection (Molecular Devices, Silicon Valley, USA). Results were expressed as the percentage of viable cells compared to the control cells treated with the highest DMSO dose used to dissolve the drugs. The 50% cytotoxic concentration (CC50) was calculated using GraphPad Prism 6.0 software (GraphPad Company, San Diego, CA, USA).

[2] = target: T1, human serum albumin (HSA) (Homo sapiens, UniProt P02768); assay: HSA time-resolved fluorescence decays; type: binding; conditions: 5e 2.78 × 10^−5 M, HSA 1.00 × 10^−5 M, room temperature
T1 construct: purchased Sigma Aldrich, St. Louis, MO, USA
T1 sequence (P02768 25-609): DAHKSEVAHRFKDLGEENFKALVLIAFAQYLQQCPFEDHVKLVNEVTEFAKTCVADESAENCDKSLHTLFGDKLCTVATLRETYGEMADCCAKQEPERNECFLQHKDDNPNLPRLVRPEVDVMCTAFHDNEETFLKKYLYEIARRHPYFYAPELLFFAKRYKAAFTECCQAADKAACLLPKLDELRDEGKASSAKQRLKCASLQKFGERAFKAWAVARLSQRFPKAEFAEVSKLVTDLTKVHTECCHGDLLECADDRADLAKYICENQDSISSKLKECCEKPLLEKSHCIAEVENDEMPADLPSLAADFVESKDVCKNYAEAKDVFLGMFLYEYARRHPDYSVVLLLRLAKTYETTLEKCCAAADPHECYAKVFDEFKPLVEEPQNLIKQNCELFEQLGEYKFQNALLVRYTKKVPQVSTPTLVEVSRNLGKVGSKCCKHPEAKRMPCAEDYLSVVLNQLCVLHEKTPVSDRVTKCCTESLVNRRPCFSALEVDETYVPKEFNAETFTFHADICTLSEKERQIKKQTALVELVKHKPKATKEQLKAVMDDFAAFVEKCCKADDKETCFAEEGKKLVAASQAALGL
Protocol: The fluorimeter model FL920 CD from Edinburgh Instruments (Edinburgh, UK), equipped with an electrically pumped laser (EPL, with λexc = 280 ± 10 nm; a pulse of 850 ps with the energy of […]; monitoring emission at 340 nm) was used for time-resolved fluorescence decays measurement. The experiment was conducted for a 3.0 mL HSA solution (1.00 × 10^−5 M, in PBS) without and in the presence of 5e (2.78 × 10^−5 M) at room temperature.

[3] = tested on: L. amazonensis promastigotes; assay: Promastigote assay (MTT); type: cell-based, Leishmania amazonensis; conditions: Leishmania amazonensis, after 48 h of culture (table title)
Protocol: Leishmania amazonensis (MHOM/BR/77/LTB0016) were regularly isolated from infected mice and maintained in culture as promastigotes through weekly passages in Schneider’s medium (Sigma Aldrich, St. Louis, MO, USA) supplemented with 10% (v/v) heat-inactivated fetal calf serum, penicillin (100 UI/mL), and streptomycin (100 µg/mL) at 299K. Parasites were maintained until the 10th passage. The Animal Ethics Committee of the Oswaldo Cruz Foundation (license number L026/2015) approved this study.
Promastigotes of L. amazonensis (1 × 10^6 promastigotes/mL) in the 4th day on culture in the conditions described above were incubated with the chalcones serially diluted in culture medium (0.032% v/v DMSO at the highest concentration tested) on a 96-well cell culture plate (TPP™ test plate, Switzerland). The assayed concentrations ranged from 50 to 1.56 µM for all chalcone-thiosemicarbazones (5a–g) and for pentamidine (Sigma Aldrich, St. Louis, MO, USA). […] All compounds were analyzed in at least three experiments performed in triplicate. Pentamidine was used as the reference drug and diluted in the same concentrations used for 5a–g. The vehicle (DMSO) had no effect on the parasites.
The antileishmanial activity was evaluated by adding 22 µL of 3-(4,5-dimethylthiazol-2-yl)-2-5diphenyltetrazolium bromide (MTT) at 5 mg/mL (Sigma Aldrich, St. Louis, MO, USA) to each well. After 2 h, 80 µL of DMSO was added and the optical density was determined at a wavelength of 570 nm in a microplate reader (µQuant Bio-Tek Instruments®, Winooski). The assays were carried out in triplicate in 96-well plates (Costar, New York, USA). The inhibition percentage was estimated by the comparison with the non-treated control. The values for the inhibitory concentration for 50% of the promastigotes (IC50) were calculated by a sigmoidal model.

[4] = constant of substituent 4-X; cited from earlier work
[5] = target: T1, human serum albumin (HSA); assay: HSA circular dichroism (α-helix content); type: binding; conditions: 310K, 5e 2.78 × 10^−5 M
Protocol: Circular dichroism (CD) spectra were measured in the same equipment used in the steady-state fluorescence analysis, using 200–250 nm range at 310K (human body temperature). The experiment was conducted for a 3.0 mL HSA solution (1.00 × 10^−6 M, in PBS) in the absence and presence of 5e (2.78 × 10^−5 M). Each spectrum obtained was the average of three scans. The intensity of the signal from the CD spectra was expressed as mean residue ellipticity (MRE), defined according to Equation (7):(7) MRE=θ/10×n×l×Cp where θ, n, l and Cp are the observed CD (in millidegrees), number of amino acid residues (585 for HSA), optical pathlength of the cell (1.00 cm) and molar concentration of HSA (1.00 × 10^−6 M), respectively.
In order to calculate quantitative information on the percentage of changes in the α-helix content upon 5e binding, the resulting MRE at 208 and 222 nm (far-UV region) were analyzed according to Equations (8A) and (8B):(8A) α−helix%=(−MRE208−4000)/(33000−4000)×100 (8B) α−helix%=(−MRE222−2340)/30300×100

HSA fluorescence lifetime τ1 in the presence of ligand [2]: 1.77 ± 0.12 ns | HSA fluorescence lifetime τ2 in the presence of ligand [2]: 5.91 ± 0.16 ns | IC50 [3]: 5.22 ± 0.75 µM | α-helix content of HSA:5e at 222 nm ([5]; HSA alone 53.5%): 52.2% | α-helix content of HSA:5e at 208 nm ([5]; HSA alone 57.1%): 55.2%
Structure (SMILES): NC(=S)N/N=C(\C=C\c1ccc(Cl)cc1)c1ccccc1 [Compound 5e, (1E,2E)-3-(4′-chlorophenyl)-1-phenylprop-2-en-1-one thiosemicarbazone]
Macrophages LD50 [1]: 32.48 ± 1.81 µM | Hammett constant σp [4]: 0.34 | Hansh constant π (lipophilicity) [4]: 0.71 | Taft constant Es [4]: −0.97 | molecular refractivity MR [4]: 0.60
